The values that follow come from US20090029972A1, “Dibenzodiazepinone Analogues, Processes for Their Production and Their Use as Pharmaceuticals” (Ecopia BioSciences Inc, priority 2004, published 2009).

Entries after “also recorded” stand apart in the source; their conditions may differ. Some results are limits rather than exact numbers.

The conditions of series [1]: for several days post-injection, ip and iv.
A further series in a line: in vivo. Particulars: CD-1 nu/nu, mouse, iv.
Series [2] relates to HT-29, SF268, MDA-MB-231 and PC-3 cell lines. Briefly: In vitro cytotoxic activity, four cell lines together (average, comparison). Conditions: for anticancer activity compared with Compound 1: Table 12 cell lines. The class given is cell-based. As to the method: (§1) Compounds were dissolved at 10 mM in DMSO. Dilution in vehicle to concentrations of 30, 10, 3, 1 and 0.3 μM were prepared immediately before assays. Depending on the cell line's growth characteristics, 4000-10000 cells were plated in two 96-wells pates (day 0) and incubated for 16 hours. The following day, propidium iodide was added to one of the two plates and fluorescence measured (Tz). Test compounds were added to the second plate, as well as vehicle control, and cells further incubated for 96 hours. Each compound was tested at each concentration and in triplicates. The equivalent cell number was determined after adding propidium iodide by measuring the signal by fluorescence (C for control).

Series [3] relates to HT-29 (colorectal carcinoma). As to the kind of experiment: In vitro cytotoxic activity GI50, method (a), HT-29. It is filed as cell-based. Particulars: Homo sapiens, 96 hours incubation, propidium iodide. As to the method: as §1
The next series has as its system SF268 (CNS). As to the kind of experiment: In vitro cytotoxic activity GI50, method (a), SF-268. It is filed as cell-based. Particulars: Homo sapiens, 96 hours incubation, propidium iodide. On the procedure: as §1
Series [4] has as its system PC-3 (prostate adenocarcinoma). As to the kind of experiment: In vitro cytotoxic activity GI50, method (a), PC-3. Conditions: 96 hours incubation, propidium iodide. The class given is cell-based. On the procedure: as §1
Series [5] relates to MDA-MB-231 (mammary gland adenocarcinoma). Briefly: In vitro cytotoxic activity GI50, method (a), MDA-MB-231. The class given is cell-based. Conditions: Homo sapiens, 96 hours incubation, propidium iodide. As to the method: as §1
Series [6] relates to C6 glioblastoma. As to the kind of experiment: In vivo efficacy in glioma model, first series (treatment 24 hrs after inoculation). Details: species or system Mus musculus nude mice. Particulars: all treated groups (10-30 mg/kg i.p.), Anova and Dunnett's test. As to the method: The aim of this study was to test whether Compounds 1 and 2 prevent or delay tumor growth in C6 glioblastoma cell-bearing mice, and to determine an effective dosage regimen.
Animal experiments were performed according to ethical guidelines of animal experimentation (Charte du comité d′éthique du CNRS, juillet 2003) and the English guidelines for the welfare of animals in experimental neoplasia (WORKMAN, P., […], P., BALKWILL, F., et al. (1998). United Kingdom Coordinating Committee on Cancer Research (UKCCCR) Guidelines for the welfare of animals in experimental neoplasia (Second Edition, July 1997; British Journal of Cancer, 77:1-10). Any dead or apparently sick mice were promptly removed and replaced with healthy mice. Sick mice were euthanized upon removal from the cage. […]
(§2) Tumor Cell Line: The C6 cell line was cloned from a rat glial tumor induced by N-nitrosomethyurea (NMU) according to Premont et al. (Premont J, Benda P, Jard S., [3H] norepinephrine binding by rat glial cells in culture. Lack of correlation between binding and adenylate cyclase activation. Biochim Biophys Acta. 1975 Feb. 13; 381(2):368-76.) after series of alternate culture and animal passages. […] The cells were counted in a hemocytometer and their viability assessed by 0.25% trypan blue exclusion. […]

The subject of series [7] is C6 glioblastoma. As to the kind of experiment: In vivo efficacy in glioma model, second series (treatment from day 10). Also on record: species or system Mus musculus nude mice.
Source text: The aim of this study was to test whether Compounds 1 and 2 prevent or delay tumor growth in C6 glioblastoma cell-bearing mice, and to determine an effective dosage regimen. […]
as §2
In a second series of experiments, treatment started at day 10 following inoculation of C6 cells when tumors became palpable (around 100 to 200 mm^3). […] Tumor volume was measured every second day until the end of the treatment using callipers. […]

A short description of series [8]: Pharmacokinetic profiles, plasma. It is filed as in vivo, female Crl: CD1 mice. Conditions: female, Crl: CD1, mouse, ip, 30 mg/kg. On the procedure: Compounds 1 and 2 were separately dissolved in ethanol (5%), Polysorbate 80 (15%), PEG 400 (5%) and dextrose (5%) at a final concentration of 6 mg/ml (for all parenteral administration routes). For oral […], Compound 1 was solubilized in Cremophor® EL/Ethanol (50%:50%) at a final concentration of 6 mg/ml. Prior to dosing, animals (female Crl: CD1 mice; 6 weeks of age, 22-24 g) were weighed, randomly selected and assigned to the different treatment groups. Compound 1 was administered by the intravenous (iv), subcutaneous (sc), intraperitoneal (ip), or oral (po) route to the assigned animals. Compound 2 was administered by the intravenous (iv), or intraperitoneal (ip) route to the assigned animals. […] Samples were analysed by LC/MS/MS.
Plasma values of Compounds 1 and 2 falling below the limit of quantitation (LOQ) were set to zero.
The following pharmacokinetic parameters were calculated: area under the plasma concentration versus time curve from time zero to the last measurable concentration time point (AUC0-t), area under the plasma concentration versus time curve extrapolated to infinity (AUCinf), maximum observed plasma concentration (Cmax), time of maximum plasma concentration (tmax), apparent first-order terminal elimination rate constant (kel), apparent first-order terminal elimination half-life will be calculated as 0.693/kel (t1/2). […]

Turning to `CC(C)=CCC/C(C)=C/CC/C(C)=C/CN1C(=O)c2cccc(O)c2N(C)c2c(O)cc(O)cc21` [Compound 2, 10-farnesyl-4,6,8-trihydroxy-5-methyl-5,10-dihydro-dibenzo[b,e][1,4]diazepin-11-one], the weight losses result in series [1] is “about 7%”. In addition, the MTD in “in vivo” was at least 100 mg/kg.
Regarding `CC(C)=CCC/C(C)=C/CC/C(C)=C/CN1C(=O)c2cccc(O)c2Nc2c1cc(O)c(Br)c2O` [Compound 24, 10-(farnesyl)-7-bromo-4,6,8-trihydroxy-5,10-dihydro-dibenzo[b,e][1,4]diazepin-11-one], the “anticancer activity compared with Compound 1” value in series [2] was “generally more active than Compound 1”.
In general, GI50 refers to the concentration that inhibits growth by half. A low value points to greater sensitivity of the cells. On to `CC(=O)Oc1cc(OC(C)=O)c2c(c1)N(C/C=C(\C)CC/C=C(\C)CCC=C(C)C)C(=O)c1cccc(OC(C)=O)c1N2` [Compound 25, 4,6,8-triacetoxy-10-farnesyl-5,10-dihydro-dibenzo[b,e][1,4]diazepin-11-one], for which the concentration for 50% growth inhibition (GI50) came to 9.33 µM in [3]; 1.95 µM in the series on SF268 (CNS); 1.2 µM in series [4]; 2.79 µM in series [5]; 3.82 µM in [2] (average of four cell lines, method (a)). For the same molecule, the “anticancer activity compared with Compound 1” value in [2] was “generally more active than Compound 1”.
As for `CC(C)CCCC(C)CCCC(C)CCN1C(=O)c2cccc(O)c2Nc2c(O)cc(O)cc21` (stereo not drawn) [Compound 23, 10-(3,7,11-trimethyldodecyl)-4,6,8-trihydroxy-5,10-dihydro-dibenzo[b,e][1,4]diazepin-11-one], the “anticancer activity compared with Compound 1” value in series [2] is given as “generally more active than Compound 1”.
What is called AUC is concentration integrated over time. The low end stands for less exposure, the high end for more exposure. In the case of `CC(C)=CCC/C(C)=C/CC/C(C)=C/CN1C(=O)c2cccc(O)c2Nc2c(O)cc(O)cc21` [Compound 1, 10-farnesyl-4,6,8-trihydroxy-5,10-dihydrodibenzo[b,e][1,4]diazepin-11-one], the “mean value of the tumor volume of treated groups vs saline group” value in the series on C6 glioblastoma [6] is “significantly reduced”; in the series on C6 glioblastoma [7] (all treated groups (20-30 mg/kg i.p.), Anova and Dunnett's test) it was “significantly reduced”. Also, in the series with C6 glioblastoma [7] (20-30 mg/kg, FIG. 3), the “Histological analysis of tumor sections” value was “cell density of tumor treated with Compound 1 appears decreased; also recorded: cell density was decreased and the nuclei of remaining tumor cells appeared larger and pycnotic”. The molecule also displayed an AUC in series [8] of 9.5 µM·h. Besides, in “in vivo”, the MTD was determined as 150 mg/kg.
